Consider 23 compounds from patent US10118930B2, “Piperidinylpyrazolopyrimidinones and their use” (BAYER PHARMA AKTIENGESELLSCHAFT, priority 2015, dated 2018).

The test deals with clot lysis (fibrinolysis) in diluted human citrated plasma, tPA-induced. The test can be described thus: Plasma-based clot lysis assay (5%). In kind it is biochemical. The settings on record: human citrated platelet-poor plasma 5%, fibrinogen 3 μM, CaCl2 10 mM, tPA 0.2 nM, 37° C., OD at 405 nm. Put shortly:
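Clot formation and breakdown triggered by CaCl2 (10 mM final) plus tPA (0.2 nM final) at 37° C, in 5% diluted human plasma supplemented with 3 μM fibrinogen (HEPES/NaCl/Brij buffer, pH 7). IC50 obtained from time courses relative to a blank control.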

Structures can show the parent of a compound that is named as a salt.

As to `Cc1nn2c(C3CCNCC3)cc(=O)[nH]c2c1C(=O)N1CCc2ccccc21` [Example 412, 3-(2,3-dihydro-1H-indol-1-ylcarbonyl)-2-methyl-7-(piperidin-4-yl) pyrazolo[1,5-a] pyrimidin-5(4H)-one hydrochloride], the IC50 worked out at 33 nM. In other words, the double-digit nanomolar range. The compound `Cc1nn2c(C3CCNCC3)cc(=O)[nH]c2c1C(=O)N1CC2CCCCC2C1` (centres unmarked) [Example 413, 2-methyl-3-(octahydro-2H-isoindol-2-ylcarbonyl)-7-(piperidin-4-yl) pyrazolo[1,5-a] pyrimidin-5(4H)-one hydrochloride] came in with an IC50 of 35 nM. `Cc1nn2c(C3CCNCC3)cc(=O)[nH]c2c1C(=O)N1CCCC1` [Example 415, 2-methyl-7-(piperidin-4-yl)-3-(pyrrolidin-1-ylcarbonyl) pyrazolo[1,5-a] pyrimidin-5(4H)-one hydrochloride] registered an IC50 of 61 nM. To `Cc1nn2c(C3CCNCC3)cc(=O)[nH]c2c1C(=O)N1CCC(C)CC1` [Example 416, 2-methyl-3-[(4-methyl-piperidin-1-yl)carbonyl]-7-(piperidin-4-yl) pyrazolo[1,5-a] pyrimidin-5(4H)-one hydrochloride] belongs 31 nM; to `Cc1nn2c(C3CCNCC3)cc(=O)[nH]c2c1C(=O)NC1CCCC1` [Example 417, N-cyclopentyl-2-methyl-5-oxo-7-(piperidin-4-yl)-4,5-dihydro-pyrazolo[1,5-a] pyrimidine-3-carboxamide hydrochloride], 24 nM.

Take `Cc1nn2c(C3CCNCC3)cc(=O)[nH]c2c1C(=O)NCC(C)C` [Example 418, N-isobutyl-2-methyl-5-oxo-7-(piperidin-4-yl)-4,5-dihydro-pyrazolo[1,5-a] pyrimidine-3-carboxamide hydrochloride]: the IC50 was 31 nM.

Take `Cc1nn2c(C3CCNCC3)cc(=O)[nH]c2c1C(=O)N1CCCC(C)(C)C1` [Example 420, 3-[(3,3-dimethyl-piperidin-1-yl)carbonyl]-2-methyl-7-(piperidin-4-yl) pyrazolo[1,5-a] pyrimidin-5(4H)-one hydrochloride]: the IC50 came to 47 nM.

In turn, `Cc1nn2c(C3CCNCC3)cc(=O)[nH]c2c1C(=O)N1CC(C)CC(C)C1` (centres unmarked) [Example 421, 3-[(3,5-dimethyl-piperidin-1-yl)carbonyl]-2-methyl-7-(piperidin-4-yl) pyrazolo[1,5-a] pyrimidin-5(4H)-one hydrochloride] yielded an IC50 of 30 nM. Against the preceding compound, the IC50 is about 1.6-fold lower. To `Cc1nn2c(C3CCNCC3)cc(=O)[nH]c2c1C(=O)NC1CCC1` [Example 422, N-cyclobutyl-2-methyl-5-oxo-7-(piperidin-4-yl)-4,5-dihydro-pyrazolo[1,5-a] pyrimidine-3-carboxamide hydrochloride] belongs 23 nM; to `CCN(Cc1ccccc1)C(=O)c1c(C)nn2c(C3CCNCC3)cc(=O)[nH]c12` [Example 423, N-benzyl-N-ethyl-2-methyl-5-oxo-7-(piperidin-4-yl)-4,5-dihydro-pyrazolo[1,5-a] pyrimidine-3-carboxamide hydrochloride], 33 nM; to `CCN(C)C(=O)c1c(C)nn2c(C3CCNCC3)cc(=O)[nH]c12` [Example 424, N-ethyl-N,2-dimethyl-5-oxo-7-(piperidin-4-yl)-4,5-dihydro-pyrazolo[1,5-a] pyrimidine-3-carboxamide hydrochloride], 78 nM. Take `Cc1nn2c(C3CCNCC3)cc(=O)[nH]c2c1C(=O)N(C)CC1CC1` [Example 425, N-(cyclopropyl-methyl)-N,2-dimethyl-5-oxo-7-(piperidin-4-yl)-4,5-dihydro-pyrazolo[1,5-a] pyrimidine-3-carboxamide hydrochloride]: the IC50 came out at 37 nM.

`Cc1nn2c(C3CCNCC3)cc(=O)[nH]c2c1C(=O)N1CCOC(C)(C)C1` [Example 426, 3-[(2,2-dimethyl-morpholin-4-yl)carbonyl]-2-methyl-7-(piperidin-4-yl) pyrazolo[1,5-a] pyrimidin-5(4H)-one hydrochloride] had an IC50 of 56 nM. This IC50 lies about 1.5-fold higher than the previous one. On to `Cc1nn2c(C3CCNCC3)cc(=O)[nH]c2c1C(=O)N(C)Cc1ccccn1` [Example 428, N,2-dimethyl-5-oxo-7-(piperidin-4-yl)-N-(pyridin-2-ylmethyl)-4,5-dihydro-pyrazolo[1,5-a] pyrimidine-3-carboxamide hydrochloride], for which half-maximal inhibition (IC50) was put at 29 nM. Consider `Cc1nn2c(C3CCNCC3)cc(=O)[nH]c2c1C(=O)N1CCC(F)(F)C1` [Example 429, 3-[(3,3-difluoro-pyrrolidin-1-yl)carbonyl]-2-methyl-7-(piperidin-4-yl) pyrazolo[1,5-a] pyrimidin-5(4H)-one hydrochloride], for which the IC50 turned out to be 30 nM. In the case of `Cc1nn2c(C3CCNCC3)cc(=O)[nH]c2c1C(=O)N1CCNC(=O)CC1` [Example 430, 2-methyl-3-[(5-oxo-1,4-diazepan-1-yl)carbonyl]-7-(piperidin-4-yl) pyrazolo[1,5-a] pyrimidin-5(4H)-one hydrochloride], the IC50 came to 120 nM. Against the preceding compound, the IC50 is about 4-fold higher.

In the case of `Cc1ccccc1N(C)C(=O)c1c(C)nn2c(C3CCNCC3)cc(=O)[nH]c12` [Example 431, N,2-dimethyl-N-(2-methyl-phenyl)-5-oxo-7-(piperidin-4-yl)-4,5-dihydro-pyrazolo[1,5-a] pyrimidine-3-carboxamide hydrochloride], the IC50 amounted to 28 nM. For `CCCN(CC)C(=O)c1c(C)nn2c(C3CCNCC3)cc(=O)[nH]c12` [Example 432, N-ethyl-2-methyl-5-oxo-7-(piperidin-4-yl)-N-propyl-4,5-dihydro-pyrazolo[1,5-a] pyrimidine-3-carboxamide hydrochloride] the value was 120 nM; for `Cc1nn2c(C3CCNCC3)cc(=O)[nH]c2c1C(=O)N1CCC(C)(C)CC1` [Example 434, 3-[(4,4-dimethyl-piperidin-1-yl)carbonyl]-2-methyl-7-(piperidin-4-yl) pyrazolo[1,5-a] pyrimidin-5(4H)-one hydrochloride], 32 nM; for `Cc1nn2c(C3CCNCC3)cc(=O)[nH]c2c1C(=O)N(C)Cc1ccccc1` [Example 436, N-benzyl-N,2-dimethyl-5-oxo-7-(piperidin-4-yl)-4,5-dihydro-pyrazolo[1,5-a] pyrimidine-3-carboxamide hydrochloride], 39 nM. Compound `Cc1nn2c(C3CCNCC3)cc(=O)[nH]c2c1-c1nc(-c2ccccc2F)no1` [Example 438, 3-[3-(2-fluorophenyl)-1,2,4-oxadiazol-5-yl]-2-methyl-7-(piperidin-4-yl)pyrazolo[1,5-a]pyrimidin-5(4H)-one hydrochloride] gave an IC50 of 12 nM. Compared with the last compound, the IC50 is about 3.2-fold lower. To `Cc1nn2c(C3CCNCC3)cc(=O)[nH]c2c1-c1nc(Cc2ccccc2Cl)no1` [Example 439, 3-[3-(2-chlorobenzyl)-1,2,4-oxadiazol-5-yl]-2-methyl-7-(piperidin-4-yl)pyrazolo[1,5-a]pyrimidin-5(4H)-one hydrochloride] belongs 26 nM; to `Cc1ccccc1-c1noc(-c2c(C)nn3c(C4CCNCC4)cc(=O)[nH]c23)n1` [Example 440, 2-methyl-3-[3-(2-methylphenyl)-1,2,4-oxadiazol-5-yl]-7-(piperidin-4-yl)pyrazolo[1,5-a]pyrimidin-5(4H)-one hydrochloride], 23 nM.

By IC50 is commonly meant the concentration needed to halve the response being measured.
